From patent publication US7572793B2, “3-Substituted-4-pyrimidone derivatives” (Mitsubishi Tanabe Pharma Corporation, priority 2001, dated 2009)

Target: T1, bovine cerebral TPK1 (Bos taurus, UniProt A0A3Q1MT31)
T1 construct: from tissue; host or cells: bovine brain (cerebrum)
Assay: Inhibitory activity against P-GS1 phosphorylation by bovine cerebral TPK1
Assay type: biochemical
Conditions: 41.7 μM [γ-32P]ATP, 25° C., 2 hours, pH 6.5
Procedure: Inhibitory Activity of the Medicament of the Present Invention Against P-GS1 Phosphorylation by Bovine Cerebral TPK1
A mixture containing 100 mM MES-sodium hydroxide (pH 6.5), 1 mM magnesium acetate, 0.5 mM EGTA, 5 mM β-mercaptoethanol, 0.02% Tween 20, 10% glycerol, 12 μg/ml P-GS1, 41.7 μM [y-^32P] ATP (68 kBq/ml), bovine cerebral TPK1 and a compound shown in Table (a final mixture contained 1.7% DMSO deriving from a solution of a test compound prepared in the presence of 10% DMSO) was used as a reaction system. The phosphorylation was started by adding ATP, and the reaction was conducted at 25° C. for 2 hours, and then stopped by adding 21% perchloric acid on ice cooling. The reaction mixture was centrifuged at 12,000 rpm for 5 minutes and adsorbed on P81 paper (Whatmann), and then the paper was washed four times with 75 mM phosphoric acid, three times with water and once with acetone. The paper was dried, and the residual radioactivity was measured using a liquid scintillation counter. […] PHF formation, and that the medicaments of the present invention are effective for preventive and/or therapeutic treatment of Alzheimer disease and the above-mentioned diseases.

T1 sequence (A0A3Q1MT31 1-419): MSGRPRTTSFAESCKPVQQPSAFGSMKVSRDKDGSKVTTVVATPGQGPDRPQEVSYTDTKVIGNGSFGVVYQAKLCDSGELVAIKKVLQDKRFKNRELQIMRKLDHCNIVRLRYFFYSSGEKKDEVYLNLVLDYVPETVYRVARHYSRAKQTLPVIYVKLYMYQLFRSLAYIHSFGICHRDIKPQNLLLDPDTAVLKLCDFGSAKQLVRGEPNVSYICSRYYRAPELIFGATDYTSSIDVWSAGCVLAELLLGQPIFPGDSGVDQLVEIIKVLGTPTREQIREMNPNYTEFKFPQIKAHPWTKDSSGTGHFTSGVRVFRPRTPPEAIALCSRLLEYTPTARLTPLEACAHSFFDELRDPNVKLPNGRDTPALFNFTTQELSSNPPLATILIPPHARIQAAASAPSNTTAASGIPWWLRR

Compound	IC50
Cn1c(N2CCOC(c3cccc(N4CCCC4)c3)C2)nc(-c2ccncn2)cc1=O (single isomer, unassigned) [Compound B275]	7 nM
Cn1c(N2CCOC(c3cccc(N4CCCC4)c3)C2)nc(-c2ccncn2)cc1=O (single isomer, unassigned) [Compound B276]	4.8 nM
Cn1c(N2CCOC(C(=O)c3ccccc3)C2)nc(-c2ccncn2)cc1=O (single isomer, unassigned) [Compound C789]	38 nM
Cn1c(N2CCOC(C(=O)c3ccccc3)C2)nc(-c2ccncn2)cc1=O (single isomer, unassigned) [Compound C790]	0.64 nM
Cn1c(NCC(=O)c2ccccc2)nc(-c2ccncn2)cc1=O [Compound A119]	24 nM
Cn1c(NCC(=O)c2cccc(F)c2)nc(-c2ccncn2)cc1=O [Compound A121]	19 nM
Cn1c(NCC(=O)c2cccc(Cl)c2)nc(-c2ccncn2)cc1=O [Compound A124]	11 nM
Cc1cccc(C(=O)CNc2nc(-c3ccncn3)cc(=O)n2C)c1 [Compound A130]	30 nM
Cn1c(N2CCOC(c3ccc(F)cc3)C2)nc(-c2ccncn2)cc1=O (stereo not drawn) [Compound B030]	11 nM
Cn1c(N2CCO[C@@H](c3ccc(F)cc3)C2)nc(-c2ccncn2)cc1=O [Compound B031, (S)-2-[2-(4-fluorophenyl)morpholin-4-yl]-3-methyl-6-pyrimidin-4-yl-3H-pyrimidin-4-one]	5 nM
Cn1c(N2CCO[C@H](c3ccc(F)cc3)C2)nc(-c2ccncn2)cc1=O [Compound B032]	32 nM
Cn1c(N2CCO[C@@H](c3ccccc3F)C2)nc(-c2ccncn2)cc1=O [Compound B037]	3 nM
COc1ccc([C@H]2CN(c3nc(-c4ccncn4)cc(=O)n3C)CCO2)cc1 [Compound B079, (S)-2-[2-(4-Methoxyphenyl)morpholin-4-yl]-3-methyl-6-pyrimidin-4-yl-3H-pyrimidin-4-one]	2.9 nM
COc1cccc([C@H]2CN(c3nc(-c4ccncn4)cc(=O)n3C)CCO2)c1 [Compound B082]	4.6 nM
COc1ccccc1C1CN(c2nc(-c3ccncn3)cc(=O)n2C)CCO1 (stereo not drawn) [Compound B084]	1.2 nM
COc1ccccc1[C@H]1CN(c2nc(-c3ccncn3)cc(=O)n2C)CCO1 [Compound B085]	0.87 nM
COc1cccc(OC)c1C1CN(c2nc(-c3ccncn3)cc(=O)n2C)CCO1 (stereo not drawn) [Compound B102]	0.441 nM
COc1cccc(OC)c1[C@H]1CN(c2nc(-c3ccncn3)cc(=O)n2C)CCO1 [Compound B103]	0.23 nM
COc1cccc(OC)c1[C@@H]1CN(c2nc(-c3ccncn3)cc(=O)n2C)CCO1 [Compound B104]	4.5 nM
Cn1c(N2CCOC(c3c(Cl)cccc3Cl)C2)nc(-c2ccncn2)cc1=O (stereo not drawn) [Compound B105]	0.27 nM
Cn1c(N2CCOC(c3ccc(CN4CCCC4)cc3)C2)nc(-c2ccncn2)cc1=O (stereo not drawn) [Compound B112]	2.1 nM
Cn1c(N2CCOC(c3ccccc3OCC3CC3)C2)nc(-c2ccncn2)cc1=O (stereo not drawn) [Compound B126]	23 nM
Cn1c(N2CCOC(c3ccc(N4CCCC4)cc3)C2)nc(-c2ccncn2)cc1=O (stereo not drawn) [Compound B140]	3.7 nM
COc1ccc(C2CN(c3nc(-c4ccncn4)cc(=O)n3C)CC(C)(C)O2)cc1 (stereo not drawn) [Compound B217]	26.1 nM
Cn1c(N2CCOC(c3nc4ccccc4s3)C2)nc(-c2ccncn2)cc1=O (stereo not drawn) [Compound B225]	12 nM
Cn1c(N2CCOC(c3cccc4c3OCC4)C2)nc(-c2ccncn2)cc1=O (stereo not drawn) [Compound B237]	0.821 nM
COc1cc(F)ccc1[C@H]1CN(c2nc(-c3ccncn3)cc(=O)n2C)CCO1 [Compound B238]	0.47 nM
Cn1c(N2CCOC(c3c(F)cccc3Cl)C2)nc(-c2ccncn2)cc1=O (stereo not drawn) [Compound B239]	0.74 nM
Cn1c(N2CCOC(c3ccc(F)cc3Cl)C2)nc(-c2ccncn2)cc1=O (stereo not drawn) [Compound B240]	3.5 nM
CC(C)Oc1cc(F)ccc1C1CN(c2nc(-c3ccncn3)cc(=O)n2C)CCO1 (stereo not drawn) [Compound B241]	4.6 nM
